Data: paper PMC6408518, “Structure guided design of an antibacterial peptide that targets UDP-N-acetylglucosamine acyltransferase” (Scientific Reports, 2019)
Several values for one entry are separate records, joined by “and”; a condition that tells them apart may be missing. Identical values can stand only once. Where a SMILES comes first, the peptide text is derived from it. Where no end group is shown, it is not given here.

target: T1, E. coli LpxA (Escherichia coli, UniProt P0A722); assay: LpxA acyltransferase inhibition assay ([α-32P]UDP-GlcNAc conversion, TLC); format: biochemical; design: made in house; host or cells: E. coli BL21(DE3)/pLysE/pTO1; details: 1 µM UDP-GlcNAc, 1 µM R-3-hydroxymyristoyl-ACP, 1 nM LpxA, 30 °C, 10% DMSO; SD of triplicates
Description: The peptides were assayed for acyl transferase inhibitory activity under conditions where the concentrations of UDP-GlcNAc and R-3-hydroxymyristoyl-ACP were 1 µM each. […] Peptide CR21 and CR23 still have good inhibitory potential of 10 μM albeit lower than peptide CR20.
The LpxA enzymatic reaction monitors the conversion of [α-^32P]UDP-GlcNAc to [α-^32P]UDP-3-O-(R-3-hydroxymyristoyl)- GlcNAc. The assay components consist of 40 mM HEPES buffer, pH 8, 1 mg/ml BSA, 1 μM R-3-hydroxymyristoyl-ACP, and 1 μM [α-^32P]UDP-GlcNAc (2 × 10^6 cpm/nmol). […] The final concentration of DMSO was adjusted to 10% to match the peptide solvent in all enzymatic assays.
The reactions were started by the addition of 1 nM of LpxA and incubated at 30 °C for a maximum of 10 min. Three or four time points were collected during this time. Termination of the reaction was accomplished by the addition of 1 μl portions onto a silica thin layer chromatography (TLC) plate. The TLC plates were air dried for 10 min before developing in chloroform/methanol/water/acetic acid (25:15:4:2, v/v). Plates were exposed to PhosphorImager screens overnight, and the data were evaluated with Molecular Dynamics PhosphorImager equipped with ImageQuant software. […] To determine the IC50 at 30 °C, the data were fit to the following equations,1 vi/vc=IC50/(I+IC50) or1a %activity=100/(1+I/IC50) vi represents the initial rate, at given concentrations of inhibitor, vc represents the initial velocity of the control reaction without inhibitor, and I represents the inhibitor concentration. The IC50 determination represents the concentration of inhibitor needed to inhibit 50% of the enzyme activity.

T1 sequence (P0A722 whole entry): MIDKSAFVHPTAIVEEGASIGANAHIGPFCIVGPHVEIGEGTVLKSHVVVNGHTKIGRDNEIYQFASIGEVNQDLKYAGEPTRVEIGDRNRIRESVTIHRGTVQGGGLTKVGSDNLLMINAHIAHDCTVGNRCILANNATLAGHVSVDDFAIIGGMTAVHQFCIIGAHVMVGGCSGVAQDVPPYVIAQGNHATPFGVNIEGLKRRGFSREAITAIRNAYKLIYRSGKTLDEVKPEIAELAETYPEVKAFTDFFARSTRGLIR

| Compound | IC50 |
| --- | --- |
| CSCC[C@H](NC(=O)[C@@H](N)Cc1c[nH]c2ccccc12)C(=O)N[C@@H](CC(C)C)C(=O)N[C@@H](CC(=O)O)C(=O)O [CR26, WMLD] (H-WMLD-OH) | > 100 µM |
| GWMLDPIA [CR24] | > 100 µM |
| GWMLDPIAGKW [CR23] | 10 ± 0.3 µM |
| GWMLDPIAGKWSR [CR19] | 0.077 ± 0.003 µM |
| SSGWMLDPIAGKW [CR22] | 9 ± 2.2 µM |
| SSGWMLDPIAGKWS [CR21] | 12 ± 1.4 µM |
| WMLDPI [CR25, WMLDPI] | > 100 µM |
| WMLDPIAGKWSR [CR20] | ~0.05 µM and 0.05 µM |

tested on: E. coli; assay: not given; details: peptide expressed fused to GST in E. coli; cited from earlier work

| Compound | Bacterial growth |
| --- | --- |
| SSGWMLDPIAGKWSR [Peptide 920] | inhibited bacterial growth |

target: T1, E. coli LpxA; assay: not given; details: previous enzymatic evidence; cited from earlier work

| Compound | Mode of inhibition |
| --- | --- |
| SSGWMLDPIAGKWSR [Peptide 920] | largely competitive with respect to ACP |
